Test results published in the CombiSolv-Exp solvation set (Vermeire and Green 2021).

Assay: solvent given as SMILES

With `CCOP(=S)(OCC)SCSc1ccc(Cl)cc1` the “solvation free energy, 298 K” value (in O) was -6.5 kcal/mol.

With `Nc1cccc(Cl)c1` the “solvation free energy, 298 K” value (in O) was -5.9 kcal/mol.

In the case of `COC(=O)c1ccc(Br)cc1`, the “solvation free energy, 298 K” value (in CN(C)C=O) is reported as -9.25 kcal/mol and the “solvation free energy, 298 K” value (in O) is reported as -4.26 kcal/mol.

For `C=C(C)c1ccccc1`, the “solvation free energy, 298 K” value (in CC(C)=O) was -6.37 kcal/mol and the “solvation free energy, 298 K” value (in O) was -1.28 kcal/mol.

For `Clc1ccc2c(c1)Oc1cc(Cl)c(Cl)c(Cl)c1O2`, the “solvation free energy, 298 K” value (in O) was -3.84 kcal/mol.

For `CC(C)CCOC(=O)c1ccccc1C(=O)OCCC(C)C`, the “solvation free energy, 298 K” value (in O) was -6.88 kcal/mol.

With `C=CC(C)CCCC(C)CCCC(C)CCCC(C)C` (stereo not drawn) the “solvation free energy, 298 K” value (in O) was 3.75 kcal/mol.

In the case of `COC(=O)c1cc([N+](=O)[O-])cc([N+](=O)[O-])c1`, the “solvation free energy, 298 K” value (in CN(C)C=O) is reported as -13.3 kcal/mol and the “solvation free energy, 298 K” value (in O) is reported as -8.92 kcal/mol.

For `CN(C)C=O`, the “solvation free energy, 298 K” value (in C1CCOC1) was -5.99 kcal/mol, the “solvation free energy, 298 K” value (in C1COCCO1) was -6.17 kcal/mol and the “solvation free energy, 298 K” value (in CC(C)=O) was -6.43 kcal/mol. The “solvation free energy, 298 K” value (in CCC(C)=O) was -6.41 kcal/mol, the “solvation free energy, 298 K” value (in CCCCCCCCCCCCCCCC) was -3.88 kcal/mol and the “solvation free energy, 298 K” value (in CCCCCCCCO) was -5.95 kcal/mol. The “solvation free energy, 298 K” value (in CCOC(C)=O) was -6.1 kcal/mol, the “solvation free energy, 298 K” value (in ClC(Cl)(Cl)Cl) was -4.73 kcal/mol and the “solvation free energy, 298 K” value (in O) was -7.77 kcal/mol. The “solvation free energy, 298 K” value (in [2H]O[2H]) was -7.47 kcal/mol and the “solvation free energy, 298 K” value (in c1ccccc1) was -6.19 kcal/mol.

For `C1CCOC1`, the “solvation free energy, 298 K” value (in CC(=O)N(C)C) was -3.96 kcal/mol, the “solvation free energy, 298 K” value (in CC(C)=O) was -4.12 kcal/mol and the “solvation free energy, 298 K” value (in CC(C)CC(C)(C)C) was -3.72 kcal/mol. The “solvation free energy, 298 K” value (in CC(C)CCCC(C)CCCC(C)CCCCC(C)CCCC(C)CCCC(C)C) was -3.35 kcal/mol, the “solvation free energy, 298 K” value (in CC(C)CCl) was -4.2 kcal/mol and the “solvation free energy, 298 K” value (in CC(C)O) was -4.01 kcal/mol. The “solvation free energy, 298 K” value (in CCC(C)Cl) was -4.16 kcal/mol, the “solvation free energy, 298 K” value (in CCCCCC) was -3.68 kcal/mol and the “solvation free energy, 298 K” value (in CCCCCCC) was -3.7 kcal/mol. For the same compound, the “solvation free energy, 298 K” value (in CCCCCCCC) was -3.66 kcal/mol, the “solvation free energy, 298 K” value (in CCCCCCCCCCCCCCCC) was -3.43 kcal/mol and the “solvation free energy, 298 K” value (in CCCCCCCCO) was -3.9 kcal/mol. The “solvation free energy, 298 K” value (in CCCCCl) was -4.19 kcal/mol, the “solvation free energy, 298 K” value (in CCCCN(C=O)CCCC) was -3.89 kcal/mol and the “solvation free energy, 298 K” value (in CCCCOCCCC) was -3.8 kcal/mol. The “solvation free energy, 298 K” value (in CCCCl) was -4.31 kcal/mol, the “solvation free energy, 298 K” value (in CCCO) was -4.02 kcal/mol and the “solvation free energy, 298 K” value (in CCN1CCCC1=O) was -3.95 kcal/mol. The “solvation free energy, 298 K” value (in CCN(CC)C(C)=O) was -3.97 kcal/mol, the “solvation free energy, 298 K” value (in CCNC(C)=O) was -3.89 kcal/mol and the “solvation free energy, 298 K” value (in CCNC=O) was -3.93 kcal/mol. The “solvation free energy, 298 K” value (in CCO) was -4.09 kcal/mol, the “solvation free energy, 298 K” value (in CCOC(C)=O) was -4.11 kcal/mol and the “solvation free energy, 298 K” value (in CN1CCCC1=O) was -4.04 kcal/mol. The “solvation free energy, 298 K” value (in CN1CCCCC1=O) was -3.92 kcal/mol, the “solvation free energy, 298 K” value (in CNC(C)=O) was -3.87 kcal/mol and the “solvation free energy, 298 K” value (in CO) was -4.43 kcal/mol. For the same compound, the “solvation free energy, 298 K” value (in CS(C)=O) was -3.67 kcal/mol, the “solvation free energy, 298 K” value (in ClC(Cl)(Cl)Cl) was -4.28 kcal/mol and the “solvation free energy, 298 K” value (in ClC(Cl)Cl) was -5.12 kcal/mol. The “solvation free energy, 298 K” value (in ClCCCl) was -4.53 kcal/mol, the “solvation free energy, 298 K” value (in NC=O) was -3.69 kcal/mol and the “solvation free energy, 298 K” value (in O) was -3.49 kcal/mol. The “solvation free energy, 298 K” value (in O=CN1CCOCC1) was -3.7 kcal/mol and the “solvation free energy, 298 K” value (in [2H]O[2H]) was -3.5 kcal/mol.

With `O=c1[nH]c2ccccc2n1C1CCN(CCCC(c2ccc(F)cc2)c2ccc(F)cc2)CC1` the “solvation free energy, 298 K” value (in C1COCCO1) was -27.7 kcal/mol, the “solvation free energy, 298 K” value (in CC(C)O) was -26.4 kcal/mol and the “solvation free energy, 298 K” value (in CCCCCCCCO) was -26.7 kcal/mol. The “solvation free energy, 298 K” value (in CCCCCCCO) was -26.8 kcal/mol, the “solvation free energy, 298 K” value (in CCCCCCO) was -26.7 kcal/mol and the “solvation free energy, 298 K” value (in CCCCCO) was -26.8 kcal/mol. The “solvation free energy, 298 K” value (in CCCCO) was -26.7 kcal/mol, the “solvation free energy, 298 K” value (in CCCO) was -26.6 kcal/mol and the “solvation free energy, 298 K” value (in CCO) was -26.6 kcal/mol. For the same compound, the “solvation free energy, 298 K” value (in CCOC(C)=O) was -26.6 kcal/mol and the “solvation free energy, 298 K” value (in CO) was -26.6 kcal/mol.

For `Cc1ccncc1`, the “solvation free energy, 298 K” value (in CC(C)CC(C)(C)C) was -4.95 kcal/mol and the “solvation free energy, 298 K” value (in O) was -4.94 kcal/mol.

In the case of `C1CCCNCC1`, the “solvation free energy, 298 K” value (in C1CCCCC1) is reported as -5.66 kcal/mol.

In the case of `CCCSCCC`, the “solvation free energy, 298 K” value (in O) is reported as -1.28 kcal/mol.

With `C1CCNC1` the “solvation free energy, 298 K” value (in C1CCCCC1) was -4.19 kcal/mol, the “solvation free energy, 298 K” value (in CCCCCCCCO) was -5.55 kcal/mol and the “solvation free energy, 298 K” value (in O) was -5.48 kcal/mol.

With `Cc1ccc(C(=O)N(C)C)cc1` the “solvation free energy, 298 K” value (in O) was -9.76 kcal/mol.

With `C=CC(C)(CCC=C(C)C)OC(=O)CC` (stereo not drawn) the “solvation free energy, 298 K” value (in O) was -3.26 kcal/mol.

In the case of `CCCCCCCBr`, the “solvation free energy, 298 K” value (in O) is reported as 0.34 kcal/mol.
